Results taken from PubChem BioAssay (NCI).
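In this assay, cells in 96-well plates receive the compound at five concentrations for 48 hours. Endpoints are linearly interpolated between the surrounding concentrations. At the TGI there is no net growth.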

Tests used:
Assay in all cases: growth of human tumour cells (NCI), 48 h
[1] = system: MCF7 breast
[2] = system: OVCAR-5 ovarian
[3] = system: EKVX NSCLC
[4] = system: NCI-H226 lung
[5] = system: SW-620 colon
[6] = system: A498 renal
[7] = system: MOLT-4 leukemia
[8] = system: HOP-92 NSCLC
[9] = system: LOX IMVI melanoma
[10] = system: SK-MEL-2 melanoma
[11] = system: SF-539 CNS
[12] = system: UACC-257 melanoma
[13] = system: M14 melanoma
[14] = system: SF-268 CNS
[15] = system: KM12 colon
[16] = system: SK-MEL-28 melanoma
[17] = system: PC-3 prostate
[18] = system: COLO 205 colon
[19] = system: DU-145 prostate
[20] = system: NCI-H23 lung
[21] = system: IGROV1 ovarian
[22] = system: MDA-MB-231 breast
[23] = system: MDA-MB-435
[24] = system: MALME-3M melanoma
[25] = system: T-47D breast
[26] = system: SNB-19 CNS
[27] = system: HCT-116 colon
[28] = system: UO-31 renal
[29] = system: HL-60(TB) leukemia
[30] = system: NCI-H522 lung
[31] = system: SN12C renal
[32] = system: HOP-62 NSCLC
[33] = system: OVCAR-3 ovarian
[34] = system: RXF 393 renal
[35] = system: SK-OV-3 ovarian
[36] = system: HCT-15 colon
[37] = system: U251 CNS
[38] = system: SK-MEL-5 melanoma
[39] = system: ACHN renal
[40] = system: HCC-2998 colon
[41] = system: CAKI-1 renal
[42] = system: OVCAR-8 ovarian
[43] = system: TK-10 renal
[44] = system: CCRF-CEM leukemia
[45] = system: 786-0 renal
[46] = system: HT29 colon
[47] = system: UACC-62 melanoma
[48] = system: RPMI-8226 leukemia
[49] = system: A549 NSCLC
[50] = system: BT-549 breast
[51] = system: NCI/ADR-RES ovarian
[52] = system: SR leukemia
[53] = system: OVCAR-4 ovarian
[54] = system: K-562 leukemia
[55] = system: NCI-H460 lung
[56] = system: MDA-N
[57] = system: SNB-75 CNS
[58] = system: HS 578T breast
[59] = system: SF-295 CNS

SMILES: Clc1ccc(C2C3COc4ccccc4C3=NN2c2ccccc2)cc1 (configuration not stated)
- TGI [1]: > 100 µM
- TGI [2]: > 100 µM
- TGI [3]: > 100 µM
- TGI [4]: > 100 µM
- TGI [5]: > 32.7 µM
- TGI [6]: > 100 µM
- TGI [7]: 47 µM
- TGI [8]: > 100 µM
- TGI [9]: > 48.7 µM
- TGI [10]: > 100 µM
- TGI [11]: > 100 µM
- TGI [12]: > 100 µM
- TGI [13]: > 100 µM
- TGI [14]: > 100 µM
- TGI [15]: > 100 µM
- TGI [16]: > 100 µM
- TGI [17]: > 100 µM
- TGI [18]: > 100 µM
- TGI [19]: > 100 µM
- TGI [20]: > 100 µM
- TGI [21]: > 100 µM
- TGI [22]: > 100 µM
- TGI [23]: > 100 µM
- TGI [24]: > 100 µM
- TGI [25]: > 100 µM
- TGI [26]: > 93.5 µM
- TGI [27]: > 100 µM
- TGI [28]: > 100 µM
- TGI [29]: > 68.2 µM
- TGI [30]: > 100 µM
- TGI [31]: > 100 µM
- TGI [32]: > 100 µM
- TGI [33]: > 100 µM
- TGI [34]: > 100 µM
- TGI [35]: > 100 µM
- TGI [36]: > 100 µM
- TGI [37]: > 100 µM
- TGI [38]: > 100 µM
- TGI [39]: > 100 µM
- TGI [40]: > 100 µM
- TGI [41]: > 100 µM
- TGI [42]: > 100 µM
- TGI [43]: > 100 µM
- TGI [44]: > 37.7 µM
- TGI [45]: > 96.4 µM
- TGI [46]: > 100 µM
- TGI [47]: > 100 µM
- TGI [48]: 7.32 µM
- TGI [49]: > 100 µM
- TGI [50]: > 100 µM
- TGI [51]: > 100 µM
- TGI [52]: 1.78 µM
- TGI [53]: > 100 µM
- TGI [54]: 21.9 µM
- TGI [55]: > 100 µM
- TGI [56]: > 67.4 µM
- TGI [57]: 98.9 µM
- TGI [58]: > 100 µM
- TGI [59]: > 100 µM

SMILES: COc1cc(C2c3cc4c(cc3OC3(OC)COC(=O)C23)OCO4)cc(OC)c1OC(C)=O (configuration not stated)
- TGI [1]: > 36.4 µM
- TGI [2]: > 41.4 µM
- TGI [3]: > 100 µM
- TGI [5]: > 100 µM
- TGI [6]: 97.4 µM
- TGI [7]: > 100 µM
- TGI [8]: > 100 µM
- TGI [9]: > 82.2 µM
- TGI [10]: > 100 µM
- TGI [11]: 2.25 µM
- TGI [12]: > 100 µM
- TGI [13]: > 74.2 µM
- TGI [14]: > 100 µM
- TGI [15]: > 100 µM
- TGI [16]: > 100 µM
- TGI [17]: > 36.1 µM
- TGI [18]: > 49.3 µM
- TGI [19]: > 100 µM
- TGI [20]: > 100 µM
- TGI [21]: > 100 µM
- TGI [22]: > 100 µM
- TGI [23]: 2.23 µM
- TGI [24]: > 100 µM
- TGI [25]: > 100 µM
- TGI [26]: > 100 µM
- TGI [27]: 38.7 µM
- TGI [28]: > 100 µM
- TGI [29]: 12.8 µM
- TGI [30]: 2.43 µM
- TGI [31]: > 100 µM
- TGI [32]: 31.7 µM
- TGI [33]: > 36.2 µM
- TGI [34]: 7.49 µM
- TGI [35]: > 100 µM
- TGI [36]: > 100 µM
- TGI [37]: > 100 µM
- TGI [38]: 34.6 µM
- TGI [39]: > 100 µM
- TGI [40]: 14.3 µM
- TGI [41]: > 100 µM
- TGI [42]: > 75.2 µM
- TGI [43]: > 100 µM
- TGI [44]: > 100 µM
- TGI [45]: > 100 µM
- TGI [46]: > 37.5 µM
- TGI [47]: > 100 µM
- TGI [48]: > 100 µM
- TGI [49]: > 100 µM
- TGI [50]: > 100 µM
- TGI [51]: 10.4 µM
- TGI [52]: > 31.6 µM
- TGI [53]: > 100 µM
- TGI [54]: > 100 µM
- TGI [55]: > 59.7 µM
- TGI [56]: 2.55 µM
- TGI [57]: > 62.9 µM
- TGI [58]: > 100 µM
- TGI [59]: 5.38 µM
